From patent publication EP1940519B1, “Pharmaceutical composition comprising artesunate, sulfamethoxypyrazine and pyrimethamine for use in the treatment of malaria within one day” (Dafra Pharma N.V., priority 2005, dated 2007)

Legend:
[1] = test system: uncomplicated falciparum malaria; conditions: area of multi-drug resistance, Thai-Burmese border; cited from earlier work
[2] = fatty meal (approximately 30 g of fat) versus low-fat meal; with artesunate 8 mg/kg and mefloquine 15 mg/kg over 12h; cited from earlier work
[3] = test system: Plasmodium falciparum malaria; conditions: India; number among the 89 subjects who completed the study; cited from earlier work
[4] = in vivo
Experimental: Treatment safety was assessed clinically as well as by measuring hematological indices and serum creatinine and hepatic transaminase concentrations. The sample size was computed assuming equal efficacy of the two treatments, and 606 patients (303 in each treatment arm) were enrolled over two consecutive malaria transmission seasons.

OC(c1cc(C(F)(F)F)nc2c(C(F)(F)F)cccc12)C1CCCCN1 (stereo not shown) [MQ, mefloquine]
Overall failure rates by day 28 [1]: 24%
bioavailability of mefloquine [2]: does not appear to increase the bioavailability

CCN(CC)CCCC(C)Nc1ccnc2cc(Cl)ccc12 (stereo not shown) [chloroquine]
treatment failures [3]: 46

artemether-lumefantrine
mild and transient elevation of transaminases [4]: 0/72
